Where two headings read alike, the source gives them in different places.
Assays:
[1] = tested on: DNA synthesis; assay: DNA synthesis by BrdU incorporation normalized to viable cells; format: cell-based; conditions: cell lines that do not undergo significant apoptosis, 100 nM, 20 hr (FIG. 15)
[2] = tested on: p53; assay: Nuclear p53 level by immunofluorescence staining with Pab1801; format: cell-based, human; conditions: MCF-7 cells, 200 nM, 20 hr
[3] = tested on: MDM2; assay: MDM2 protein level by immunoprecipitation/Western blot in oligonucleotide-treated cells; format: cell-based, human; conditions: JAR cells, 18 h, Lipofectin 7 μg/ml, Western blot (FIG. 2A)
[4] = tested on: JAR cells; assay: Induction of apoptosis / cell death in JAR cells; format: cell-based, human; conditions: 400 nM, 30 h, Lipofectin
Method: JAR cells (ATCC) were grown in DMEM medium supplemented with 1% FBS according to standard cell culture techniques. Cells were then treated for 30 hours with growth medium containing 400 nM of either antisense oligonucleotide AS5 (SEQ ID NO:28) complementary to a portion of MDM2-encoding RNA or control oligonucleotide M4 (SEQ ID NO:5), and 7 μg/ml lipofectin (Gibco BRL Paisley, UK). Treated cells were then photographed using a phase contrast microscope.
JAR cells were treated for 24 hours as described in Example 6. Floating cells were harvested and chromosomal DNA was extracted according to standard techniques (Liu et al., Cell 86:147-157 (1996)). Purified DNA was then analyzed by agarose gel electrophoresis on a 2% agarose gel. Following electrophoresis the gel was stained with 0.5 μg/ml ethidium bromide.

[5] = tested on: MDM2; conditions: JAR and SJSA cells, 100-400 nM, Lipofectin; cited from earlier work
[6] = tested on: MDM2, p53 and p21 protein levels in LS174T cells; assay: Western blot of MDM2, p53 and p21 in LS174T cells; format: cell-based, human; conditions: up to 500 nM, 24 hr, Lipofectin
[7] = tested on: MDM2, p53 and p21 protein levels in DLD-1 cells; assay: Western blot of MDM2, p53 and p21 in DLD-1 cells; format: cell-based, human
From the text: (§1) Chemicals and Reagents. Cell culture media and phosphate-buffered saline (PBS) were obtained from Sigma Chemical Co. (St. Louis, Mo.). Fetal bovine serum (FBS), antibodies against p53 and p21, Lipofectin, trypsin, penicillin-streptomycin, and trypan blue stain were purchased from GIBCO-BRL (Grand Island, N.Y.). The anti-human-MDM2 monoclonal antibody (Chen L. et al., Proc Natl Acad Sci USA, 95: 195-200, 1998; Chen L. et al., Mol. Med. 5: 21-34, 1999) was kindly provided by J. Chen (Moffitt Cancer Center, Tampa, Fla.). Chemotherapeutic agents adriamycin and 5-fluorouracil (5-FU) were obtained from Sigma. Natural product topoisomerase I inhibitor 10-hydroxycamptothecin (HCPT) was obtained from the Midwest Co. (Beijing, China) with the purity of the drug being greater than 98% (Zhang R. et al., Cancer Chemother Pharm 41: 257-267, 1998). Cell Culture. The tumor cell lines, LS174T and DLD-1 were obtained from the American Type Culture Collection (Rockville, Md.) and cultured according to their instructions. LS 174T cells were cultured in MEM with 0.1 mM nonessential amino acids and Earle's balanced salt solution containing 10% FBS and DLD-1 cells in RPMI 1640 medium containing 10% FBS. All media included 1% penicillin/streptomycin. […] Cells were incubated with Oligos AS or ASM at various concentrations for 72 hr, in the presence of Lipofectin (7 μg/ml). […] Western Blot Analysis. The MDM2, p53 and p21 levels in cultured cells were analyzed by using the methods described previously (earlier (Chen L. et al., Proc Natl Acad Sci USA, 95: 195-200, 1998; Chen L. et al., Mol. Med. 5: 21-34, 1999; Wang H. et al., Int J. Oncol. 15: 653-660, 1999). In brief, cell lysate containing identical amounts of total protein were fractionated by SDS-PAGE and transferred to Bio-Rad Trans-Blot nitrocellulose membranes (Bio-Rad Laboratories, Hercules, Calif., USA). The nitrocellulose membrane was then incubated with blocking buffer (PBS containing 0.1% Tween 20 and 5% non-fat milk) for 1 hr at room temperature and washed with the washing buffer (PBS containing 0. 1% Tween 20) for 5 min twice. The membrane was incubated with primary (anti-MDM2, anti-p53, or anti-p21) antibody overnight at 4° C. or for 1 hr at room temperature with gentle shaking. The membrane was washed with the washing buffer for 15 min and then twice for 5 min, and then incubated with 1:5000 diluted goat anti-mouse IgG-horse radish peroxidase conjugated antibody (Bio-Rad, Hercules, Calif.) for 1 hr at room temperature. After washing as described above the protein of interest was detected by ECL reagents from Amersham (Arlington Height, Ill.). Results. LS174T Model. In vitro inhibition of MDM2 expression by Oligo AS was shown in a sequence-specific, increasing dose-dependent manner (FIG. 19). […] Control oligonucleotide, Oligo ASM had no effect on MDM2, p53 or p21 protein levels at 500 nM, the highest concentration tested in the study.
Following in vitro combination treatment of Oligos and chemotherapeutic agents HCPT, adriamycin, and 5-FU, the protein levels of MDM2, p53 and p21 were determined in DLD-1 cells. Cells were incubated with 200 nM Oligo in the presence of Lipofectin for 24 hr, followed by addition of various concentrations of chemotherapeutic agents and incubation for an additional 24 hr.

[8] = mice bearing DLD-1 xenografts
[9] = tested on: MDM2, p53 and p21 protein levels in LS174T cells; assay: Western blot of MDM2, p53 and p21 in LS174T cells; format: cell-based, human; conditions: 400 nM Oligo 24 hr
From the text: as §1
Following in vitro combination treatment of Oligos and chemotherapeutic agents HCPT, adriamycin, and 5-FU, the protein levels of MDM2, p53 and p21 were determined in LS174T cells. Cells were incubated with 400 nM Oligo in the presence of Lipofectin for 24 hr, followed by addition of various concentrations of chemotherapeutic agents and incubation for additional 24 hr.

[10] = tested on: human colon cancer LS174T xenografts; assay: Tumor growth in nude mice bearing LS174T xenografts
[11] = tested on: DLD-1 cells; assay: DLD-1 cell growth by trypan blue viability staining; format: cell-based, human; conditions: 72 hr, Lipofectin
From the text: (§2) Chemicals and Reagents. Cell culture media and phosphate-buffered saline (PBS) were obtained from Sigma Chemical Co. (St. Louis, Mo.). Fetal bovine serum (FBS), antibodies against p53 and p21, Lipofectin, trypsin, penicillin-streptomycin, and trypan blue stain were purchased from GIBCO-BRL (Grand Island, N.Y.). The anti-human-MDM2 monoclonal antibody (Chen L. et al., Proc Natl Acad Sci USA, 95: 195-200, 1998; Chen L. et al., Mol. Med. 5: 21-34, 1999) was kindly provided by J. Chen (Moffitt Cancer Center, Tampa, Fla.). Chemotherapeutic agents adriamycin and 5-fluorouracil (5-FU) were obtained from Sigma. […] The MDM2, p53 and p21 levels in cultured cells were analyzed by using the methods described previously (earlier (Chen L. et al., Proc Natl Acad Sci USA, 95: 195-200, 1998; Chen L. et al., Mol. Med. 5: 21-34, 1999; Wang H. et al., Int J. Oncol. 15: 653-660, 1999). In brief, cell lysate containing identical amounts of total protein were fractionated by SDS-PAGE and transferred to Bio-Rad Trans-Blot nitrocellulose membranes (Bio-Rad Laboratories, Hercules, Calif., USA). The nitrocellulose membrane was then incubated with blocking buffer (PBS containing 0.1% Tween 20 and 5% non-fat milk) for 1 hr at room temperature and washed with the washing buffer (PBS containing 0. […]

[12] = tested on: LS174T cells; assay: LS174T cell growth by trypan blue viability staining; format: cell-based, human; conditions: 72 hr, Lipofectin
From the text: as §2

[13] = tested on: human colon cancer DLD-1 xenografts; assay: Tumor growth in nude mice bearing DLD-1 xenografts; format: in vivo
[14] = mice bearing LS174T xenografts
[15] = day 3, oligo 20, HCPT 3, 5-FU 10 mg/kg/day
[16] = day 6, oligo 20, HCPT 3, 5-FU 10 mg/kg/day
[17] = day 9, oligo 20, HCPT 3, 5-FU 10 mg/kg/day
[18] = day 12, oligo 20, HCPT 3, 5-FU 10 mg/kg/day
[19] = day 15, oligo 20, HCPT 3, 5-FU 10 mg/kg/day

K: control oligonucleotide complementary to an ion channel, 5′-CAGAGCCTTCATCTTCCCAG-3′; SEQ ID NO:6 (chemistry not given here)
rate of DNA synthesis (BrdU incorporation) [1]: not observed | nuclear p53 staining [2]: did not induce p53 | inhibition of MDM2 expression [3]: not observed

M4: mismatch control oligonucleotide of AS5 with four mismatches, 5′-GATGACTCACACCATCATGG-3′; SEQ ID NO:5 (listed as DNA, chemistry not given here) [Oligo M4]
cell death / apoptosis morphology [4]: significantly less apoptosis | decrease of MDM2 protein levels [5]: no effect | inhibition of MDM2 expression [3]: not observed

Oligo ASM: mismatched control of Oligo AS, 5′-UGTCACCCTTTTTCATUCAC-3′; SEQ ID NO:50 (chemistry not given here)
effect on MDM2, p53 and p21 protein levels [6]: no effect | effect on MDM2, p53 or p21 protein levels [7]: no effect | MDM2, p53 and p21 protein levels, oligo pre-treatment then 5-FU ([7]; 200 nM Oligo 24 hr, then 5-FU 24 hr): minimal effect | MDM2 and p21 protein levels, oligo pre-treatment then HCPT ([7]; 200 nM Oligo 24 hr, then HCPT 24 hr): minimal effect | MDM2 and p21 protein levels, oligo pre-treatment then adriamycin ([7]; 200 nM Oligo 24 hr, then adriamycin 24 hr): minimal effect | Survival Rates of Animals ([8]; day 3): 100% | Survival Rates of Animals ([8]; day 6): 100% | Survival Rates of Animals ([8]; day 9): 100% | Survival Rates of Animals ([8]; day 12): 100% | Survival Rates of Animals ([8]; day 15): 100% | Survival Rates of Animals ([8]; day 18): 100% | Survival Rates of Animals ([8]; day 21): 66.7% | MDM2, p53 and p21 protein levels, oligo pre-treatment then 5-FU ([9]; then 5-FU 24 hr): minimal effect | MDM2, p53 and p21 protein levels, oligo pre-treatment then HCPT ([9]; then HCPT 24 hr): minimal effect | MDM2, p53 and p21 protein levels, oligo pre-treatment then adriamycin ([9]; then adriamycin 24 hr): minimal effect | effect of combination treatment on tumor growth [10]: no significant effect | xenograft pathology (tumor histology) [10]: indistinguishable histologically | effect on in vivo tumor growth ([10]; daily ip dose 20 mg/kg): minimal effect | Ratio (%) of % T:C with oligo to % T:C without oligo ([2]/[1] or [3]/[1]) ([10]; day 3): 99% | Growth ratio % T:C (mean tumor mass of treated group vs saline control) [10, 15]: 98.6% | Ratio (%) of % T:C with oligo to % T:C without oligo ([2]/[1] or [3]/[1]) ([10]; day 6): 105% | Growth ratio % T:C (mean tumor mass of treated group vs saline control) [10, 16]: 104.9% | Ratio (%) of % T:C with oligo to % T:C without oligo ([2]/[1] or [3]/[1]) ([10]; day 9): 70% | Growth ratio % T:C (mean tumor mass of treated group vs saline control) [10, 17]: 69.7% | Ratio (%) of % T:C with oligo to % T:C without oligo ([2]/[1] or [3]/[1]) ([10]; day 12): 82% | Growth ratio % T:C (mean tumor mass of treated group vs saline control) [10, 18]: 81.5% | Ratio (%) of % T:C with oligo to % T:C without oligo ([2]/[1] or [3]/[1]) ([10]; day 15): 79% | Growth ratio % T:C (mean tumor mass of treated group vs saline control) [10, 19]: 79.4% | Ratio (%) of % T:C with oligo to % T:C without oligo ([2]/[1] or [3]/[1]) ([10]; day 18): 72% | Growth ratio % T:C (mean tumor mass of treated group vs saline control) ([10]; day 18 (end of experiment), oligo 20, HCPT 3, 5-FU 10 mg/kg/day): 73.3% | Ratio (%) of % T:C with oligo to % T:C without oligo ([2]/[1] or [3]/[1]) ([10]; day 18, listed as ASM): 73% | effect on tumor cell growth [11]: no significant effect | effect on tumor cell growth [12]: no significant effect | effect of combination treatment on tumor growth [13]: no significant effect | effect on in vivo tumor growth ([13]; 20 mg/kg/day): minimal effect | Ratio (%) of % T:C with oligo to % T:C without oligo ([2]/[1] or [3]/[1]) ([13]; day 3): 82% | Growth ratio % T:C [13, 15]: 81.5% | Ratio (%) of % T:C with oligo to % T:C without oligo ([2]/[1] or [3]/[1]) ([13]; day 6): 88% | Growth ratio % T:C [13, 16]: 87.5% | Ratio (%) of % T:C with oligo to % T:C without oligo ([2]/[1] or [3]/[1]) ([13]; day 9): 70% | Growth ratio % T:C [13, 17]: 79.3% | Ratio (%) of % T:C with oligo to % T:C without oligo ([2]/[1] or [3]/[1]) ([13]; day 12): 66% | Growth ratio % T:C [13, 18]: 66.4% | Ratio (%) of % T:C with oligo to % T:C without oligo ([2]/[1] or [3]/[1]) ([13]; day 15): 79% | Growth ratio % T:C [13, 19]: 79.3% | Ratio (%) of % T:C with oligo to % T:C without oligo ([2]/[1] or [3]/[1]) ([13]; day 18): 81% | Growth ratio % T:C ([13]; day 18, oligo 20, HCPT 3, 5-FU 10 mg/kg/day): 81.0% | Ratio (%) of % T:C with oligo to % T:C without oligo ([2]/[1] or [3]/[1]) ([13]; day 21): 76% | Growth ratio % T:C ([13]; day 21 (end of experiment), oligo 20, HCPT 3, 5-FU 10 mg/kg/day): 76.0% | Survival Rates of Animals ([14]; day 3): 100% | Survival Rates of Animals ([14]; day 6): 100% | Survival Rates of Animals ([14]; day 9): 100% | Survival Rates of Animals ([14]; day 12): 100% | Survival Rates of Animals ([14]; day 15): 100% | Survival Rates of Animals ([14]; day 18): 100%
